According to PubChem BioAssay (NCI):
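Tested at 5 concentrations; 48 h exposure; 96-well plates; endpoints linearly interpolated, else capped at highest concentration. TGI marks complete inhibition of growth.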

Key:
Experiment in all cases: NCI tumour cell line growth inhibition, 48 h
[1] = test system: NCI/ADR-RES ovarian
[2] = test system: MDA-N
[3] = test system: U251 CNS
[4] = test system: CAKI-1 renal
[5] = test system: NCI-H226 lung
[6] = test system: M14 melanoma
[7] = test system: SF-539 CNS
[8] = test system: SF-268 CNS
[9] = test system: A549 NSCLC
[10] = test system: LOX IMVI melanoma
[11] = test system: DU-145 prostate
[12] = test system: TK-10 renal
[13] = test system: 786-0 renal
[14] = test system: HT29 colon
[15] = test system: SW-620 colon
[16] = test system: NCI-H522 lung
[17] = test system: NCI-H460 lung
[18] = test system: SK-OV-3 ovarian
[19] = test system: SF-295 CNS
[20] = test system: T-47D breast
[21] = test system: SK-MEL-28 melanoma
[22] = test system: SN12C renal
[23] = test system: OVCAR-8 ovarian
[24] = test system: KM12 colon
[25] = test system: MALME-3M melanoma
[26] = test system: CCRF-CEM leukemia
[27] = test system: MOLT-4 leukemia
[28] = test system: HCT-116 colon
[29] = test system: ACHN renal
[30] = test system: UACC-257 melanoma
[31] = test system: OVCAR-3 ovarian
[32] = test system: HCT-15 colon
[33] = test system: SK-MEL-5 melanoma
[34] = test system: HOP-92 NSCLC
[35] = test system: HOP-62 NSCLC
[36] = test system: PC-3 prostate
[37] = test system: MDA-MB-231 breast
[38] = test system: K-562 leukemia
[39] = test system: UACC-62 melanoma
[40] = test system: OVCAR-5 ovarian
[41] = test system: HCC-2998 colon
[42] = test system: RPMI-8226 leukemia
[43] = test system: NCI-H23 lung
[44] = test system: RXF 393 renal
[45] = test system: IGROV1 ovarian
[46] = test system: SK-MEL-2 melanoma
[47] = test system: COLO 205 colon
[48] = test system: BT-549 breast
[49] = test system: MDA-MB-435
[50] = test system: MCF7 breast
[51] = test system: OVCAR-4 ovarian
[52] = test system: EKVX NSCLC
[53] = test system: SNB-19 CNS
[54] = test system: UO-31 renal
[55] = test system: HS 578T breast
[56] = test system: HL-60(TB) leukemia
[57] = test system: SR leukemia
[58] = test system: SNB-75 CNS
[59] = test system: A498 renal

## C=CCOC(=O)C1=C(C)NC2=N[C@H](CCCCCCCCC)C[C@@H]3CCC1N23 (stereo partly specified)
[1]
  TGI: 56 µM
[2]
  TGI: 38.4 µM
[3]
  TGI: 40.5 µM
[4]
  TGI: > 100 µM
[5]
  TGI: 36.6 µM
[6]
  TGI: 37.6 µM
[7]
  TGI: 38.1 µM
[8]
  TGI: 39.9 µM
[9]
  TGI: > 100 µM
[10]
  TGI: 44.9 µM
[11]
  TGI: 67.8 µM
[12]
  TGI: 39.4 µM
[13]
  TGI: 39.3 µM
[14]
  TGI: 72.2 µM
[15]
  TGI: > 100 µM
[16]
  TGI: 34.7 µM
[17]
  TGI: 72.6 µM
[18]
  TGI: 75.2 µM
[19]
  TGI: > 100 µM
[20]
  TGI: 60.2 µM
[21]
  TGI: 53.6 µM
[22]
  TGI: 35.7 µM
[23]
  TGI: > 100 µM
[24]
  TGI: > 100 µM
[25]
  TGI: 35.7 µM
[26]
  TGI: > 100 µM
[27]
  TGI: > 100 µM
[28]
  TGI: 36 µM
[29]
  TGI: 44.4 µM
[30]
  TGI: 37.1 µM
[31]
  TGI: 37.5 µM
[32]
  TGI: 56.2 µM
[33]
  TGI: 34.4 µM
[34]
  TGI: 38 µM
[35]
  TGI: 79 µM
[36]
  TGI: 42.1 µM
[37]
  TGI: 41.7 µM
[38]
  TGI: > 100 µM
[39]
  TGI: 35.6 µM
[40]
  TGI: 48.2 µM
[41]
  TGI: 48.4 µM
[42]
  TGI: > 100 µM
[43]
  TGI: 41.8 µM
[44]
  TGI: 36 µM
[45]
  TGI: 49.5 µM
[46]
  TGI: 36.5 µM
[47]
  TGI: 50.9 µM
[48]
  TGI: 37.6 µM
[49]
  TGI: 44.5 µM
[50]
  TGI: 36.5 µM
[51]
  TGI: 45.9 µM
[52]
  TGI: 53.1 µM
[53]
  TGI: 42 µM
[54]
  TGI: 32.5 µM
[55]
  TGI: 54.4 µM
[56]
  TGI: 69.4 µM
[57]
  TGI: > 100 µM
[58]
  TGI: 83.5 µM

## CCOC(=O)NC(Nc1ccc(F)cc1)(C(=O)OCC)C(F)(F)F (stereo unspecified)
[1]
  TGI: > 100 µM
[2]
  TGI: > 100 µM
[3]
  TGI: > 100 µM
[4]
  TGI: > 100 µM
[5]
  TGI: > 100 µM
[6]
  TGI: > 100 µM
[7]
  TGI: > 100 µM
[8]
  TGI: > 100 µM
[9]
  TGI: > 100 µM
[59]
  TGI: > 100 µM
[10]
  TGI: > 100 µM
[11]
  TGI: > 100 µM
[12]
  TGI: > 100 µM
[13]
  TGI: > 100 µM
[14]
  TGI: > 100 µM
[15]
  TGI: > 100 µM
[16]
  TGI: > 100 µM
[17]
  TGI: > 100 µM
[18]
  TGI: > 100 µM
[19]
  TGI: > 100 µM
[20]
  TGI: > 100 µM
[21]
  TGI: > 100 µM
[22]
  TGI: > 100 µM
[23]
  TGI: > 100 µM
[24]
  TGI: > 100 µM
[25]
  TGI: > 100 µM
[26]
  TGI: > 23.9 µM
[27]
  TGI: > 100 µM
[28]
  TGI: > 100 µM
[29]
  TGI: > 100 µM
[30]
  TGI: > 100 µM
[31]
  TGI: > 100 µM
[32]
  TGI: > 100 µM
[33]
  TGI: > 100 µM
[34]
  TGI: > 100 µM
[35]
  TGI: > 100 µM
[36]
  TGI: > 100 µM
[37]
  TGI: > 100 µM
[38]
  TGI: > 100 µM
[39]
  TGI: > 100 µM
[40]
  TGI: > 100 µM
[41]
  TGI: > 100 µM
[42]
  TGI: > 100 µM
[43]
  TGI: > 100 µM
[44]
  TGI: > 100 µM
[45]
  TGI: > 100 µM
[47]
  TGI: > 100 µM
[48]
  TGI: > 100 µM
[49]
  TGI: > 100 µM
[50]
  TGI: > 100 µM
[51]
  TGI: > 100 µM
[52]
  TGI: > 100 µM
[53]
  TGI: > 100 µM
[54]
  TGI: > 100 µM
[55]
  TGI: > 100 µM
[56]
  TGI: > 100 µM
[57]
  TGI: > 100 µM
[58]
  TGI: > 100 µM
